Experimental data reported in patent US20210179578A1, “OX1 ANTAGONISTS” (Heptares Therapeutics Limited, priority 2017, published 2021).

Columns and labels:
[1] = target: T1, human OX1 receptor (Homo sapiens, UniProt O43613); assay: [3H]-radioligand binding assay, OX1; parameters: made in house; host or cells: SF21 insect cells (baculovirus; P0 virus made in SF9); settings: [3H]-radioligand binding, human OX1 membranes; read-out: pKi average OX1 (converted)
T1 sequence (O43613 1-425): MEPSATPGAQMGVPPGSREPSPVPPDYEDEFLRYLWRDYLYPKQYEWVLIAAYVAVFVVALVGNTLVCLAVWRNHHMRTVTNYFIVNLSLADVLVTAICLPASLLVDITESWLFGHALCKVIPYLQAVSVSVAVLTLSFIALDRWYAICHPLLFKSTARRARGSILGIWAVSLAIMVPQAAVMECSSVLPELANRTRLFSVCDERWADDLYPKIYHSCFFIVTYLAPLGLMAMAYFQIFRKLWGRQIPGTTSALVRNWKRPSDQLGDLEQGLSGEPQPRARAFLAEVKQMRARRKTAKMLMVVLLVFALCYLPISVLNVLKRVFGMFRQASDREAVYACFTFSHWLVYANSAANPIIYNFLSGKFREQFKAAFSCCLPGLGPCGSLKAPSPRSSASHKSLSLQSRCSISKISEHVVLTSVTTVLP
From the text: (§1) Cloning, Baculovirus generation, large-scale infection of SF21 cells and membrane preparation. Human OX1 or OX2 receptor were cloned into Invitrogen's (ThermoFisher Scientific, UK) Bac-to-Bac Baculovirus Expression System. P0 baculovirus was generated by transfecting SF9 cells with bacmid DNA using Cellfectin® II transfection reagent (ThermoFisher Scientific, UK, Catalog number 10362-100). Following P0 generation P1 virus was then generated ready for large scale infection and membrane preparation. SF21 cells were grown in expression medium ESF921 (Expression Systems, USA, catalog number 96-001-01) supplemented with 10% heat-inactivated FBS and 1% Pen/Strep and were infected at a cell density of 2.5×10^6 cells/mL and a multiplicity of infection of 1.0 for both human OX1R and OX2R. Incubation was carried out at over 48 h in a shaking incubator set at 27° C. The cell culture was then centrifuged at 2,500 rcf for 10 min at 4° C. The pellets were resuspended in cold PBS supplemented with Roche's Complete EDTA-free protease inhibitor cocktail tablets (Roche Applied Sciences, catalog number 05056489001), 1 mM PMSF and 1 mM EDTA. The resuspended cell paste was then centrifuged at 3,273 rcf for 12 min at 4° C. The supernatant was discarded and the pellet frozen at −80° C. The cell pellet from a 4 L culture was resuspended in buffer containing 50 mM HEPES pH 7.5, 150 mM NaCl, 8 Roche EDTA-Free protease inhibitor cocktail tablets and 1 mM PMSF. The suspension was left stirring at rt for 1 h and then homogenised for 90 s at 9,500 rpm using a VDI 25 (VWR, USA) homogeniser. The cells were then lysed using a Microfluidiser processor M-110L Pneumatic (Microfluidics, USA) at 60 PSI and membranes collected by ultracentrifugation at 204.7 k×g for 1 h. The supernatant was discarded and the pellet was resuspended and homogenised in 90 s at 9,500 rpm in 50 mL (25 mL for each 2 L culture) of buffer containing 50 mM Hepes pH 7.5, 150 mM NaCl, 3 Roche EDTA-free protease inhibitor cocktail tablets and 1 mM PMSF. The resulting membranes were then stored at −80° C.
(§2) [^3H]-radioligand binding assay. After thawing, membrane homogenates were resuspended in the binding buffer (8.5 mM HEPES, pH 7.4, 1.3 mM CaCl2, 1.2 mM MgSO4, 118 mM NaCl, 4.7 mM KCl, 4 mM NaHCO3, 1.2 mM KH2PO4, 11 mM glucose) to a final assay concentration of 6.4 μg (OX1) or 1.4 μg (OX2) protein per well. Saturation isotherms were determined by the addition of various concentrations (0-30 nM) of [^3H]-4-(2,6-difluoro-4-methoxybenzyl)-2-(5,6-dimethoxypyridin-3-yl)-2H-1,2,4-benzothiadiazin-3(4H)-one 1,1-dioxide (Christopher et al, MedChemComm., 2015, 6, 947-955) in a total reaction volume of 250 μL for 90 min at rt. At the end of the incubation, membranes were filtered onto a 96-well GF/B filter pre-incubated with 0.5% polyethylenimine, with a Tomtec cell harvester and washed 5 times with 0.5 mL distilled water. Non-specific binding (NSB) was measured in the presence of 3.33 μM [4-(5-chloro-1,3-benzoxazol-2-yl)-7-methyl-1,4-diazepan-1-yl][5-methyl-2-(2H-1,2,3-triazol-2-yl)phenyl]methanone (Wertz et al, Angew. Chem. Int. Ed., 2011, 50, 11511-11515). Radioactivity on the filter was counted (1 min) on a Microbeta radiometric plate counter (Perkin Elmer) after addition of 50 μL of scintillation fluid (LabLogic: Part #SG-BXX-14). […] IC50 values were derived from the inhibition curve and the equilibrium dissociation constant (Ki) values were calculated using the Cheng-Prusoff equation.

[2] = target: T2, human OX2 receptor (Homo sapiens, UniProt O43614); assay: [3H]-radioligand binding assay, OX2; parameters: made in house; host or cells: SF21 insect cells (baculovirus; P0 virus made in SF9); settings: [3H]-radioligand binding, human OX2 membranes; read-out: pKi average OX2 (converted)
T2 sequence (O43614 1-444): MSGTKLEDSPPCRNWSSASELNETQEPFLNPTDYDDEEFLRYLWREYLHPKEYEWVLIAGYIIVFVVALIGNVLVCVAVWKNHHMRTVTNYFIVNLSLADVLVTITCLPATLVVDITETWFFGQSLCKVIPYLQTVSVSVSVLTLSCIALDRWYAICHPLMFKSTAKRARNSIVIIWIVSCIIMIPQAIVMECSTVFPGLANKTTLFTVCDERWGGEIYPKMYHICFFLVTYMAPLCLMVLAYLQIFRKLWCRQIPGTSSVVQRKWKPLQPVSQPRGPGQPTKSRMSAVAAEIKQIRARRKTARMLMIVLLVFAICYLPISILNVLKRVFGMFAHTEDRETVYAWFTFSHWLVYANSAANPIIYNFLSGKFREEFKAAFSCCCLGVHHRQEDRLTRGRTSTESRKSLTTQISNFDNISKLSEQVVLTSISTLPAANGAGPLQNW
From the text: as §1, §2

Row | Compound | Ki [1] [pM] | Ki [2] [pM]
1 | COc1ncc(C2CCc3c(F)cccc3N(Cc3c(F)cc(Br)cc3F)C2=O)cc1C(C)(F)F (single isomer, unassigned) [Example 12, 1-(4-bromo-2,6-difluorobenzyl)-3-[5-(1,1-difluoroethyl)-6-methoxypyridin-3-yl]-6-fluoro-1,3,4,5-tetrahydro-2H-1-benzazepin-2-one] | 398 | > 398000
2 | COc1ncc(C2CCc3c(F)cccc3N(Cc3cc(C#N)ccc3F)C2=O)cc1C(C)(F)F (single isomer, unassigned) [Example 13, 3-({3-[5-(1,1-difluoroethyl)-6-methoxypyridin-3-yl]-6-fluoro-2-oxo-2,3,4,5-tetrahydro-1H-1-benzazepin-1-yl}methyl)-4-fluorobenzonitrile] | 794 | > 158000
3 | [2H]C([2H])([2H])Oc1ncc(N2CCc3c(F)cccc3N(Cc3c(F)cc(Br)cc3F)C2=O)cc1C(C)(F)F [Example 2, 1-(4-bromo-2,6-difluorobenzyl)-3-{5-(1,1-difluoroethyl)-6-[(^2H3)methyloxy]pyridin-3-yl}-6-fluoro-1,3,4,5-tetrahydro-2H-1,3-benzodiazepin-2-one] | 631 | 
4 | [2H]C([2H])([2H])OCc1cc(F)c(CN2C(=O)N(c3cnc(OC)c(C(C)(F)F)c3)CCc3c(F)cccc32)c(F)c1 [Example 5, 3-[5-(1,1-difluoroethyl)-6-methoxypyridin-3-yl]-1-(2,6-difluoro-4-{[(^2H3)methyloxy]methyl}benzyl)-6-fluoro-1,3,4,5-tetrahydro-2H-1,3-benzodiazepin-2-one] | 316 | 
5 | COCc1cc(F)c(CN2C(=O)N(c3cnc(OC)c(C(C)(F)F)c3)CCc3c(F)cccc32)c(F)c1 [Example 7, 3-[5-(1,1-difluoroethyl)-6-methoxypyridin-3-yl]-1-[2,6-difluoro-4-(methoxymethyl)benzyl]-6-fluoro-1,3,4,5-tetrahydro-2H-1,3-benzodiazepin-2-one] | 1000 | 
6 | COc1cc(F)c(CN2C(=O)N(c3cnc(OC)c(C(C)(F)F)c3)CCc3c(F)cccc32)c(F)c1 [Example 8, 3-[5-(1,1-difluoroethyl)-6-methoxypyridin-3-yl]-1-(2,6-difluoro-4-methoxybenzyl)-6-fluoro-1,3,4,5-tetrahydro-2H-1,3-benzodiazepin-2-one] | 398 | 
7 | COc1ncc(N2CCc3c(F)cccc3N(Cc3c(F)cc(Cl)cc3F)C2=O)cc1C(C)(F)F [Example 9, 1-(4-chloro-2,6-difluorobenzyl)-3-[5-(1,1-difluoroethyl)-6-methoxypyridin-3-yl]-6-fluoro-1,3,4,5-tetrahydro-2H-1,3-benzodiazepin-2-one] | 794 | 
8 | COc1cc(F)c(CN2C(=O)N(c3cnc(OC)c(S(C)(=O)=O)c3)CCc3c(F)cccc32)c(F)c1 [Example 16, 1-(2,6-difluoro-4-methoxybenzyl)-6-fluoro-3-[6-methoxy-5-(methylsulfonyl)pyridin-3-yl]-1,3,4,5-tetrahydro-2H-1,3-benzodiazepin-2-one] | 794 | 
9 | COc1ncc(N2CCc3c(F)cccc3N(Cc3c(C)cc(Br)cc3F)C2=O)cc1S(C)(=O)=O [Example 17, 1-(4-bromo-2-fluoro-6-methylbenzyl)-6-fluoro-3-[6-methoxy-5-(methylsulfonyl)pyridin-3-yl]-1,3,4,5-tetrahydro-2H-1,3-benzodiazepin-2-one] | 794 | 
10 | COc1ncc(N2CCc3c(F)cccc3N(Cc3c(C)cc(F)cc3F)C2=O)cc1S(C)(=O)=O [Example 18, 1-(2,4-difluoro-6-methylbenzyl)-6-fluoro-3-[6-methoxy-5-(methylsulfonyl)pyridin-3-yl]-1,3,4,5-tetrahydro-2H-1,3-benzodiazepin-2-one] | 1260 | 

Further lines, results first:

Row | Ki [1] [pM] | Ki [2] [pM] | Compound
11 | 3980 | > 251000 | COc1ncc(C2CCc3c(F)cccc3N(Cc3c(F)cc(Br)cc3F)C2=O)cc1S(C)(=O)=O (racemic) [Example 19, 1-(4-bromo-2,6-difluorobenzyl)-6-fluoro-3-[6-methoxy-5-(methylsulfonyl)pyridin-3-yl]-1,3,4,5-tetrahydro-2H-1-benzazepin-2-one]
12 | 316 |  | COc1ncc(C2CCc3c(F)cccc3N(Cc3c(F)cc(Br)cc3F)C2=O)cc1S(C)(=O)=O (single isomer, unassigned) [Example 21, 1-(4-bromo-2,6-difluorobenzyl)-6-fluoro-3-[6-methoxy-5-(methylsulfonyl)pyridin-3-yl]-1,3,4,5-tetrahydro-2H-1-benzazepin-2-one]
13 | 501 | > 631000 | COc1ncc(C2CCc3c(F)cccc3N(Cc3c(F)cc(Cl)cc3F)C2=O)cc1S(C)(=O)=O (single isomer, unassigned) [Example 22, 1-(4-chloro-2,6-difluorobenzyl)-6-fluoro-3-[6-methoxy-5-(methylsulfonyl)pyridin-3-yl]-1,3,4,5-tetrahydro-2H-1-benzazepin-2-one]
14 | 2000 | > 126000 | Cc1ncc(C2CCc3c(F)cccc3N(Cc3c(F)cc(Br)cc3F)C2=O)cc1C(C)(F)F (single isomer, unassigned) [Example 35, 1-(4-bromo-2,6-difluorobenzyl)-3-[5-(1,1-difluoroethyl)-6-methylpyridin-3-yl]-6-fluoro-1,3,4,5-tetrahydro-2H-1-benzazepin-2-one]
15 | 1260 |  | Cc1cc(C)c(S(C)(=O)=O)cc1N1CCc2ccccc2N(Cc2c(F)cc(OC(C)C)cc2F)C1=O [Example 30, 1-[2,6-difluoro-4-(propan-2-yloxy)benzyl]-3-[2,4-dimethyl-5-(methylsulfonyl)phenyl]-1,3,4,5-tetrahydro-2H-1,3-benzodiazepin-2-one]
16 | 1580 |  | Cc1ncc(N2CCc3c(F)cccc3N(Cc3c(F)cc(Br)cc3F)C2=O)cc1OC(F)F [Example 37, 1-(4-bromo-2,6-difluorobenzyl)-3-[5-(difluoromethoxy)-6-methylpyridin-3-yl]-6-fluoro-1,3,4,5-tetrahydro-2H-1,3-benzodiazepin-2-one]
